Source: patent US9024041B2, “P38 MAP kinase inhibitors” (Respivert Ltd., priority 2010, dated 2015)

Experiments:
[1] = tested on: LPS-induced TNFα release in THP-1 cells; assay: LPS-induced TNFα release in THP-1 cells; type: cell-based; conditions: Homo sapiens, 3 μg/mL LPS, 4 hr
Outline: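 Human monocytic cells were stimulated with 3 μg/mL E. coli LPS for 4 hr. Supernatant TNFα was measured by sandwich ELISA. Inhibition was taken relative to vehicle control, and IC50 derived from the concentration-response curve.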

[2] = biological target: T1, Recombinant, phosphorylated p38 MAPKγ (MAPK12:Invitrogen) (Homo sapiens, UniProt P53778); assay: p38 MAPKγ enzyme inhibition assay (FRET, Z-LYTE); type: biochemical; conditions: 2 hr pre-incubation, ATP 100 μM; read-out: Enzyme Inhibition IC50 p38γ
T1 construct: purchased Invitrogen
T1 sequence (P53778 1-367): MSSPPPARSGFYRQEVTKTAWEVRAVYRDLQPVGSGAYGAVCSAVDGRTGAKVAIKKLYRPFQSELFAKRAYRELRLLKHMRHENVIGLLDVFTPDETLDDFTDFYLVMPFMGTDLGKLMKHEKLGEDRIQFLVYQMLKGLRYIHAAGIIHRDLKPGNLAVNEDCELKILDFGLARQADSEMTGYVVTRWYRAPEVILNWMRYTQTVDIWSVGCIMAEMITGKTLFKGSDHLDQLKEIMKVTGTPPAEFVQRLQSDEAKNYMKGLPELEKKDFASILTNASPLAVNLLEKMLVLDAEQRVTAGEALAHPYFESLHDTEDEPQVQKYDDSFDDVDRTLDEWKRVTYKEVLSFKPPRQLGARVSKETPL
Procedure: The enzyme inhibitory activities of compounds disclosed herein were determined by fluorescence resonance energy transfer (FRET) using synthetic peptides labelled with both donor and acceptor fluorophores (Z-LYTE, Invitrogen Ltd., Paisley, UK). Recombinant, phosphorylated p38 MAPKγ (MAPK12:Invitrogen) was diluted in HEPES buffer, mixed with the test compound at the desired final concentrations and incubated for 2 hr at RT. The FRET peptide (2 μM) and ATP (100 μM) were added to the enzyme/compound mixture and incubated for 1 hr. Development reagent (protease) was added for 1 hr prior to detection in a fluorescence microplate reader (Varioskan® Flash, ThermoFisher Scientific). The site-specific protease cleaves non-phosphorylated peptide only and eliminates the FRET signal. Phosphorylation levels of each reaction were calculated using the ratio of coumarin emission (donor) over fluorescein emission (acceptor) for which high ratios indicate high phosphorylation and low ratios indicate low phosphorylation levels.

[3] = tested on: LPS-induced TNFα release in d-U937 cells; assay: LPS-induced TNFα release in d-U937 cells; type: cell-based; conditions: Homo sapiens, dU937, 4 h; read-out: LPS/TNFα REC50 d-U937
Outline: (§1)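 U937 cells differentiated with PMA (100 ng/mL, 48–72 hr), pre-incubated with compound 2 hr, then stimulated with 0.1 μg/mL E. coli O111:B4 LPS for 4 hr. Supernatant TNFα and IL-8 measured by sandwich ELISA; REC50 (TNFα) and IC50 (IL-8 inhibition vs vehicle) taken from concentration-response curves.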

[4] = tested on: LPS-induced IL-8 release in d-U937 cells; assay: LPS-induced IL-8 release in d-U937 cells; type: cell-based; conditions: Homo sapiens, dU937, 0.1 μg/mL LPS, 4 hr
Outline: as §1

[5] = tested on: Poly I:C-induced ICAM-1 expression in BEAS2B cells; assay: Poly I:C-induced ICAM-1 induction in BEAS2B cells; type: cell-based; conditions: Homo sapiens, BEAS-2B, poly I:C 1 μg/mL, 18 hr, read-out: PolyI:C/ICAM1 IC50 BEAS2B
Outline: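 Human bronchial epithelial BEAS2B cells were pre-incubated with compound for 2 h, then transfected with poly I:C at 1 μg/mL. Surface ICAM-1 was measured 18 h later by cell-based ELISA (OD450–655), normalised to crystal-violet cell number (OD595). IC50 was taken from the concentration–response curve against vehicle.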

[6] = biological target: T2, p38 MAPKα isoform (MAPK14: Invitrogen) (Homo sapiens, UniProt Q16539); assay: p38 MAPKα enzyme inhibition assay (FRET, Z-LYTE, via MAPKAP-K2 activation); type: biochemical; conditions: 2 hr pre-incubation, ATP 10.0 μM; read-out: Enzyme Inhibition IC50 p38α
T2 construct: purchased Invitrogen

[7] = tested on: Differentiated U937 cells; assay: MTT assay: cell viability on exposure to test compounds; type: cell-based, human; conditions: percentage loss of cell viability vs vehicle, 1 μg/mL; for MTT Assay (Viability) 4 h d-U937: 5% FCS; for MTT Assay (Viability) 24 h d-U937: 10% FCS
Outline: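 Differentiated U937 cells were pre-incubated with compound for either 4 h in 5% FCS or 24 h in 10% FCS, then given MTT for 1 h. Formazan was dissolved in DMSO and read at 550 nm. Viability loss is expressed as % versus 0.5% DMSO vehicle, so an apparent gain appears as a negative value.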

T2 sequence (Q16539 whole entry, canonical isoform): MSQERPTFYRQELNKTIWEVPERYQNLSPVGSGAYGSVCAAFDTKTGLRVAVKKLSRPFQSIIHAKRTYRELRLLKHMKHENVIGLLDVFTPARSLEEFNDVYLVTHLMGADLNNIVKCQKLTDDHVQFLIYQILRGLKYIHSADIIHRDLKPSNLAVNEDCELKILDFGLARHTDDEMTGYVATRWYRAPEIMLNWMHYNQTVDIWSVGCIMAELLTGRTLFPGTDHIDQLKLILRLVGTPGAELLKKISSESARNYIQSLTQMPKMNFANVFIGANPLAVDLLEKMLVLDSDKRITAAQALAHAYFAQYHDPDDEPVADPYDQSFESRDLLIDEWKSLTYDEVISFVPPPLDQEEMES

SMILES	IC50 [1] [nM]	IC50 [2] [nM]	EC50 [3] [nM]	IC50 [4] [nM]	IC50 [6] [nM]	IC50 [5] [nM]	MTT Assay (Viability) 4 h d-U937 [7] [%]	MTT Assay (Viability) 24 h d-U937 [7] [%]
COCC(=O)Nc1cc(Oc2ccc(NC(=O)Nc3cc(C(C)(C)C)nn3-c3ccc(Cl)cc3)c3ccccc23)ccn1 [Example 42, N-(4-(4-(3-(3-tert-butyl-1-(4-chlorophenyl)-1H-pyrazol-5-yl)ureido)naphthalen-1-yloxy)pyridin-2-yl)-2-methoxyacetamide]	2.8	239	7.2	18.9	25	22.2	−10.7	−24.9
CC(C)(C)c1cc(NC(=O)Nc2ccc(Oc3ccnc(NC(=O)NC4CC4)c3)c3ccccc23)n(-c2ccc(S(C)(=O)=O)cc2)n1 [Example 47, 1-(3-tert-butyl-1-(4-(methylsulfonyl)phenyl)-1H-pyrazol-5-yl)-3-(4-(2-(3-cyclopropylureido)pyridin-4-yloxy)naphthalen-1-yl)urea]	17.3	262	17	24.3	8.4	2.4	3.5	−21.7
CN1CCN(C(=O)Nc2cc(Oc3ccc(NC(=O)Nc4cc(C(C)(C)C)nn4-c4ccc(S(C)(=O)=O)cc4)c4ccccc34)ccn2)CC1 [Example 48, N-(4-(4-(3-(3-tert-butyl-1-(4-(methylsulfonyl)phenyl)-1H-pyrazol-5-yl)ureido)naphthalen-1-yloxy)pyridin-2-yl)-4-methylpiperazine-1-carboxamide]	3.4	123	2.4	5	0.6	32.7	−16.1	−11.3
COCC(=O)Nc1cc(Oc2ccc(NC(=O)Nc3cc(C(C)(C)C)nn3-c3ccc(S(C)(=O)=O)cc3)c3ccccc23)ncn1 [Example 50, N-(6-(4-(3-(3-tert-butyl-1-(4-(methylsulfonyl)phenyl)-1H-pyrazol-5-yl)ureido)naphthalen-1-yloxy)pyrimidin-4-yl)-2-methoxyacetamide]	13.3	39.3	4.5	272	9.5	100	−8.0	−10.4
COCC(=O)Nc1cc(Oc2ccc(NC(=O)Nc3cc(C(C)(C)C)nn3-c3ccc(O)c(Cl)c3)c3ccccc23)ccn1 [Example 52, N-(4-(4-(3-(3-tert-butyl-1-(3-chloro-4-hydroxyphenyl)-1H-pyrazol-5-yl)ureido)naphthalen-1-yloxy)pyridin-2-yl)-2-methoxyacetamide]	8.2	332	16.3	> 1630	1.9	5.7	8.5	−48.8
COCC(=O)Nc1cc(Oc2ccc(NC(=O)Nc3cc(C(C)(C)C)nn3-c3ccc(Cl)c(Cl)c3)c3ccccc23)ccn1 [Example 55, N-(4-(4-(3-(3-tert-butyl-1-(3,4-dichlorophenyl)-1H-pyrazol-5-yl)ureido)naphthalen-1-yloxy)pyridin-2-yl)-2-methoxyacetamide]	4.3	102	0.8	5.5	14.9	14.7	−16.1	−71.1
COCC(=O)Nc1cc(COc2ccc(NC(=O)Nc3cc(C(C)(C)C)nn3-c3ccc(C)cc3)c(C)c2C)ccn1 [Example 58, N-(4-((4-(3-(3-tert-butyl-1-(p-tolyl)-1H-pyrazol-5-yl)ureido)-2,3-dimethylphenoxy)methyl)pyridin-2-yl)-2-methoxyacetamide]	388	329	10.4	45.6	10.6	474	−2.8	12.0

Now those with a lower IC50 [1], led by results:

IC50 [1] [nM]	IC50 [2] [nM]	EC50 [3] [nM]	IC50 [4] [nM]	IC50 [6] [nM]	SMILES	IC50 [5] [nM]	MTT Assay (Viability) 4 h d-U937 [7] [%]	MTT Assay (Viability) 24 h d-U937 [7] [%]
2	192	1.6	8.9	8.3	COCC(=O)Nc1cc(Oc2ccc(NC(=O)Nc3cc(C(C)(C)C)nn3-c3ccc(C(=O)OC)cc3)c3ccccc23)ccn1 [Example 43, methyl 4-(3-tert-butyl-5-(3-(4-((2-(2-methoxyacetamido)pyridin-4-yl)oxy)naphthalen-1-yl)ureido)-1H-pyrazol-1-yl)benzoate]	1.7	−12.8	0.1
1.2	194	0.1	5.9	15.1	COCC(=O)Nc1cc(Oc2ccc(NC(=O)Nc3cc(C(C)(C)C)nn3-c3ccc(SC)cc3)c3ccccc23)ccn1 [Example 44, N-(4-(4-(3-(3-tert-butyl-1-(4-(methylthio)phenyl)-1H-pyrazol-5-yl)ureido)naphthalen-1-yloxy)pyridin-2-yl)-2-methoxyacetamide]	7.5	−4.0	−16.4
2.3	104	0.4	2	36.2	CNC(=O)Nc1cc(Oc2ccc(NC(=O)Nc3cc(C(C)(C)C)nn3-c3ccc(S(C)(=O)=O)cc3)c3ccccc23)ccn1 [Example 46, 1-(3-tert-butyl-1-(4-(methylsulfonyl)phenyl)-1H-pyrazol-5-yl)-3-(4-((2-(3-methylureido)pyridin-4-yl)oxy)naphthalen-1-yl)urea]	41.2	−12.6	−47.9
0.8	185	0.5	0.8	5.2	CC(C)(C)c1cc(NC(=O)Nc2ccc(Oc3ccnc(NC(=O)N4CCOCC4)c3)c3ccccc23)n(-c2ccc(S(C)(=O)=O)cc2)n1 [Example 49, N-(4-(4-(3-(3-tert-butyl-1-(4-(methylsulfonyl)phenyl)-1H-pyrazol-5-yl)ureido)naphthalen-1-yloxy)pyridin-2-yl)morpholine-4-carboxamide]	10.7	−15.9	11.8
1.2	83.4	0.4	20	29.9	COCC(=O)Nc1cc(Oc2ccc(NC(=O)Nc3cc(C(C)(C)C)nn3-c3cc(OC)cc(OC)c3)c3ccccc23)ccn1 [Example 53, N-(4-(4-(3-(3-tert-butyl-1-(3,5-dimethoxyphenyl)-1H-pyrazol-5-yl)ureido)naphthalen-1-yloxy)pyridin-2-yl)-2-methoxyacetamide]	27.4	3.1	−0.9
1.3	199	0.2	2.7	9.1	COCC(=O)Nc1cc(Oc2ccc(NC(=O)Nc3cc(C(C)(C)C)nn3-c3ccc(OC)c(Cl)c3)c3ccccc23)ccn1 [Example 54, N-(4-(4-(3-(3-tert-butyl-1-(3-chloro-4-methoxyphenyl)-1H-pyrazol-5-yl)ureido)naphthalen-1-yloxy)pyridin-2-yl)-2-methoxyacetamide]	0.7	0.1	−7.5
1.6	246	0.3	17.2	< 0.2	COCC(=O)Nc1cc(Oc2ccc(NC(=O)Nc3cc(C(C)(C)C)nn3-c3ccc(C)nc3)c3ccccc23)ccn1 [Example 57, N-(4-(4-(3-(3-tert-butyl-1-(6-methylpyridin-3-yl)-1H-pyrazol-5-yl)ureido)naphthalen-1-yloxy)pyridin-2-yl)-2-methoxyacetamide]	8.6	−3.4	76.0
